Reference: US20170008888A1 (KYORIN PHARMACEUTICAL CO., LTD., priority 2014, published 2017)
Marks after values point to notes of the source that are not given here. Each block holds one compound with its values, some of them ahead of it.

Tests used:
MV-4-11 cells = assay: MV-4-11 proliferation EC50 assay (CellTiter-Glo); type: cell-based; details: Homo sapiens, MV4-11, 48 h, read-out: MV-4-11 proliferation EC50, ave. ± S.D.
Description: Human biphenotypic B myelomonocytic leukemia MV-4-11 cells (ATCC, Manassas, Va.) were treated with test compounds at 2e5 cells/ml in IMDM medium containing 10% (v/v) FBS (Life Technologies, Grand Island, N.Y.) and 1×Pen/Strep Amphotericin B (Lonza, Allendale, N.J.). Compounds were tested at 25 μM down by ⅓ in a 9 point serial dilution series. Cells were incubated for 48 h at 37° C. in a humidified atmosphere at 5% CO2. MV-4-11 cell proliferation was then indirectly determined via cellular ATP content using the CellTiter-Glo® Luminescent Cell Viability Assay (Promega, Madison, Wis.) as per the manufacturer's instructions. Briefly, experimental plates were equilibrated at room temperature for 30 minutes. An equal volume of CellTiter-Glo® reagent was added to each well and incubated for 15 minutes at room temperature. Luminescent signal was read using the Wallac 1420 Victor^2 multilabel microplate reader (Perkin Elmer, Waltham, Mass.). EC50 values were determined using GraphPad Prism software v5.04.

[1] = system: DNFB-induced ear inflammation mouse model; assay: DNFB-induced ear inflammation (contact hypersensitivity) mouse model: ear weight; type: in vivo, mouse (Balb/c); details: 3 mg/kg PO, QD on Day 5 (elicitation)
Description: (§1) In vivo T-cell mediated immune response was examined in a mouse model of CHS using the hapten dinitrofluorobenzene (DNFB) as the induction agent. Method for sensitization and elicitation of DNFB-induced CHS was modified from Xu et al. J. Exp. Med. 1996. 183:1001-1012. On Days 0 and 1 (sensitization), 20 μL of 0.5% v/v DNFB in acetone:olive oil (4:1) was applied to each hindpaw of 8 week old male mice (Balb/c, Charles River Laboratories; 10 mice per group unless otherwise noted). On Day 5 (elicitation) 10 μL of 0.2% v/v DNFB in acetone: olive oil (4:1) was applied to the dorsal surface of the right ear of each animal; 10 μL of acetone: olive oil (4:1) was applied to the dorsal surface of the left ear as control. Treatments were administered by group as indicated in the table below; on days when DNFB was used, the QD and the morning dose of BID as appropriate were administered 30 minutes-1 hr. prior to DNFB application. […] Approximately 24 hours after elicitation (Day 6), a 7 mm tissue punch from the central portion of both ears was collected and wet weights measured. The primary functional assessment was the difference in wet weights of the right (DNFB) vs. left (vehicle) ears compared to the vehicle treatment (Vehicle1-S) as an indicator of inflammation (Table 17). Ear tissue punches were flash frozen, stored at −70° C. and analyzed for cytokines (see below). Body weights of the mice were measured at baseline and at end of study, and there were no significant changes in weight in any treatment group during the study (data not shown).

[2] = system: DNFB-induced ear inflammation mouse model; assay: DNFB-induced ear inflammation mouse model: cytokine concentrations in ear tissue; type: in vivo, mouse (Balb/c); details: Dex 3 mg/kg PO, regimen E
Description: as §1, with “Method for sensitization and elicitation of DNFB-induced CHS was modified from Xu et al. J. Exp. Med. 1996. 183:1001-1012.” left out, “below).” for “below). Body weights of the mice were measured at baseline and at end of study, and there were no significant changes in weight in any treatment group during the study (data not shown).”
Cytokine concentrations after DNFB induction and treatment were analyzed in the weighed and flash frozen tissues of the right (DNFB) and left (control) 7 mm ear punches. The ear tissues were stored at −70° C. until prepared for analysis as follows. Left or right ear tissues from the same treatment group were pooled and crushed with mortar and pestle under liquid nitrogen. Tissue representing 7-8 ear punches by weight was homogenized in Buffer A (50 mM HEPES pH 7.4, 100 mM NaCl) containing 1 tablet EDTA-free Protease Inhibitor (Thermo Fisher Scientific, Rockford, Ill.) per 10 mL, 1× Phosphatase Inhibitor Cocktail II (AG Scientific, San Diego, Calif.), and 1 mM PMSF (Sigma, St. Louis, Mo.). Homogenization was performed in Lysing Matrix D tubes (MP Biomedicals, Solon, Ohio), using the FastPrep-24 instrument (MP Biomedicals) at a speed setting of 6 for 4 cycles of 30 seconds, with cooling on ice in between cycles. The tubes were then centrifuged at 1,000×g for 10 min at 4° C. Supernatant was collected and briefly sonicated using the Microson probe sonicator at setting 3 (Misonix, Farmingdale, N.Y.) before centrifuging again at 10,000×g for 10 min at 4° C. The supernatant was ultracentrifuged at 100,000×g for 1 h at 4° C. in the Optima Max-E (Beckman Coulter, Indianapolis, Ind.) to separate soluble and membrane protein fractions. The soluble (supernatant) fraction was collected and protein concentrations determined using the Dc protein kit (Bio-Rad, Hercules, Calif.). Soluble ear proteins were analyzed in triplicate for cytokine response at a final protein concentration of 4 mg/ml using the Bio-Plex Pro Mouse Cytokine 23-Plex panel (Bio-Rad) as per manufacturer's protocols. Magnetic beads were read on the Bio-Plex MAGPIX multiplex reader instrument using the accompanying xPONENT 4.2 acquisition software (Bio-Rad Laboratories, Hercules, Calif.). Data were analyzed via the Bio-Plex Manager software v6.1 (Bio-Rad Laboratories). Response was calculated as a percentage of the cytokine concentrations measured in the right (DNFB) ears of vehicle 1 dosed (S regimen, i.e. dosed Day 0-5) mice (Table 18).

[3] = system: Imiquimod-induced psoriasis mouse model; assay: Imiquimod (IMQ)-induced acute model of psoriasis in mouse: skin thickness, erythema, scaling; type: in vivo, mouse (Balb/c)
Description: Material and methods for the IMQ study were adapted from van der Fits et al. J Immunol., 2009, 182: 5836-5845. Eight week old male Balb/c mice (Harlan) received a daily topical dose of 62.5 mg 5% IMQ cream (Aldara™, Medicis) equivalent to 3.125 mg IMQ, on the shaved back (approximately 2×3.5 cm patch) and dorsal surface of the right ear for 6 consecutive days. Sham control mice were treated similarly with control cream (Hydrous Emulsified Base, HEB, Cream, Fagron). Treatments were administered by group as indicated in Table 1 below prior to daily application of IMQ (QD and morning dose of BID regimens), n=10 for all groups. […] Body weights and scoring of induced clinical disease were performed after dosing (Days 1-7) but prior to IMQ application (Days 1-6) on Days 1 (baseline), 3, 4, 6, 8. Mice were sacrificed on Day 8 and treated back skin tissue collected and divided for fixation for histopathology (a 12 mm punch in mid-back) the remainder flash frozen; right (IMQ) and left (control) ears, spleen (after wet weight) and lung were also individually collected and flash frozen, and stored at −70° C. for subsequent biochemical analyses. Statistics were performed using one-way ANOVA with Dunnett's post-hoc test comparing treated groups to the vehicle group, using InStat software (GraphPad, La Jolla, Calif.).
The severity of clinical disease was assessed by
1) skin thickness dial gauge micrometer measurements (duplicate) of the ears and the dorsal skin at the midline of the back (equal to double true measure of dorsal skin thickness)
2) erythema and scaling, independently scored on a scale from 0-4: 0=none, 1=slight, 2=moderate, 3=marked, 4=very marked with intermediate increments of 0.5 allowed.
Clinical disease assessments included erythema, scaling, skin thickness and cumulative disease severity scores and the change in skin thickness of the ears and dorsal back skin over time compared to baseline measurements (Tables 19 and 20). Body weights of the mice were measured at baseline and at end of study, and there were no significant changes in weight in any treatment group during the study (data not shown).

[4] = Day 1 (baseline), Dexamethasone 3 mg/kg PO
[5] = Day 3, Dexamethasone 3 mg/kg PO
[6] = Day 4, Dexamethasone 3 mg/kg PO
[7] = Day 6, Dexamethasone 3 mg/kg PO
[8] = Day 8, Dexamethasone 3 mg/kg PO

- EC50 (MV-4-11 cells): 1120 nM
SMILES: CN1C(=O)c2ccccc2N(C)c2nc(Nc3ccc(N4CCC(O)CC4)cn3)ncc21 [Compound IV-5 in WO 2010/080712]

SMILES: C[C@@H]1C[C@H]2[C@@H]3CCC4=CC(=O)C=C[C@]4(C)[C@@]3(F)[C@@H](O)C[C@]2(C)[C@@]1(O)C(=O)CO [Dexamethasone, reference compound]
- % Reduction Weight Increase Vs. Vehicle 1 Weight Increase [1]: −60.0%
- IFN-γ: Mean % Cytokine Concentration in DNFB Treated Right Ears versus Vehicle 1-Dosed (S) Mice [2]: 74%
- IL-1α: Mean % Cytokine Concentration in DNFB Treated Right Ears versus Vehicle 1-Dosed (S) Mice [2]: 189%
- IL-1β: Mean % Cytokine Concentration in DNFB Treated Right Ears versus Vehicle 1-Dosed (S) Mice [2]: 53%
- IL-3: Mean % Cytokine Concentration in DNFB Treated Right Ears versus Vehicle 1-Dosed (S) Mice [2]: 76%
- IL-5: Mean % Cytokine Concentration in DNFB Treated Right Ears versus Vehicle 1-Dosed (S) Mice [2]: 58%
- IL-6: Mean % Cytokine Concentration in DNFB Treated Right Ears versus Vehicle 1-Dosed (S) Mice [2]: 36%
- IL-12 (p40): Mean % Cytokine Concentration in DNFB Treated Right Ears versus Vehicle 1-Dosed (S) Mice [2]: 59%
- IL-13: Mean % Cytokine Concentration in DNFB Treated Right Ears versus Vehicle 1-Dosed (S) Mice [2]: 81%
- IL-17A: Mean % Cytokine Concentration in DNFB Treated Right Ears versus Vehicle 1-Dosed (S) Mice [2]: 63%
- KC: Mean % Cytokine Concentration in DNFB Treated Right Ears versus Vehicle 1-Dosed (S) Mice [2]: 29%
- MCP-1: Mean % Cytokine Concentration in DNFB Treated Right Ears versus Vehicle 1-Dosed (S) Mice [2]: 41%
- MIP-1α: Mean % Cytokine Concentration in DNFB Treated Right Ears versus Vehicle 1-Dosed (S) Mice [2]: 53%
- MIP-1β: Mean % Cytokine Concentration in DNFB Treated Right Ears versus Vehicle 1-Dosed (S) Mice [2]: 39%
- RANTES: Mean % Cytokine Concentration in DNFB Treated Right Ears versus Vehicle 1-Dosed (S) Mice [2]: 42%
- TNF-α: Mean % Cytokine Concentration in DNFB Treated Right Ears versus Vehicle 1-Dosed (S) Mice [2]: 74%
- Clinical Score Erythema (0-4), AVG Score [3, 4]: 0
- Clinical Score Scaling (0-4), AVG Score [3, 4]: 0
- % Mean DORSAL BACK THICKNESS versus day 1, AVG [3, 5]: 3.08%
- % Mean LEFT EAR THICKNESS [Control] versus day 1, AVG [3, 5]: −9.64%
- % Mean RIGHT EAR THICKNESS [IMQ] versus day 1, AVG [3, 5]: −5.32%
- Clinical Score Erythema (0-4), AVG Score [3, 5]: 0.05
- Clinical Score Scaling (0-4), AVG Score [3, 5]: 0
- % Mean DORSAL BACK THICKNESS versus day 1, AVG [3, 6]: 13.71%
- % Mean LEFT EAR THICKNESS [Control] versus day 1, AVG [3, 6]: −10.38%
- % Mean RIGHT EAR THICKNESS [IMQ] versus day 1, AVG [3, 6]: −2.08%
- Clinical Score Erythema (0-4), AVG Score [3, 6]: 0.65
- Clinical Score Scaling (0-4), AVG Score [3, 6]: 0.2
- % Mean DORSAL BACK THICKNESS versus day 1, AVG [3, 7]: 13.04** %
- % Mean LEFT EAR THICKNESS [Control] versus day 1, AVG [3, 7]: −9.61%
- % Mean RIGHT EAR THICKNESS [IMQ] versus day 1, AVG [3, 7]: 10.54** %
- Clinical Score Erythema (0-4), AVG Score [3, 7]: 0.45
- Clinical Score Scaling (0-4), AVG Score [3, 7]: 0.5
- % Mean DORSAL BACK THICKNESS versus day 1, AVG [3, 8]: 14.32** %
- % Mean LEFT EAR THICKNESS [Control] versus day 1, AVG [3, 8]: −14.05%
- % Mean RIGHT EAR THICKNESS [IMQ] versus day 1, AVG [3, 8]: 10.40** %
- Clinical Score Erythema (0-4), AVG Score [3, 8]: 0.45
- Clinical Score Scaling (0-4), AVG Score [3, 8]: 0.35
